# Measurements: patent US20210128639A1, “CELL PREPARATION FOR TREATING BRAIN TUMOR” (priority 2017, published 2021)
# Assays:
# Type in all cases: cell-based, human
# [1] = test system: Tet-induction iPS cells expressing HSVtk; experiment: Cell death of Tet-induction iPS cells expressing HSVtk on adding Dox and GCV to the medium; details: 1 μg/ml doxycycline (Dox) and 1 μg/ml GCV added to the medium
# Source text: Human iPS cells were infected with the CSIV-HSV1tk-TRE-EF-KT lentiviral vector at an MOI of 2.5 to 10 and cultured. The clones were then sorted with the cell sorter to obtain an iPS cell line expressing hKO1 steadily and highly.
# NS/PCs expressing HSVtk = experiment: Cell death of NS/PCs expressing HSVtk on adding ganciclovir to the medium; details: 1 μg/ml ganciclovir (GCV) added to the medium
# Source text: Secondary or tertiary NS/PCs differentiation-induced from human iPS cells were collected with the centrifuge and disassembled into single cells using TrypLE Select. The single cells were suspended in NS medium, inoculated into a low adhesive flask at a concentration of 1×10^5 cells/ml, infected with the CSIV-EF-HSV1tk-IRES2-hKO1 lentiviral vector at an MOI (multiplicity of infection) of 0.5 to 1, and cultured for 7 days with the medium replaced every 3 to 4 days. The obtained NS/PCs were infected with the CSIV-EF-HSV1tk-IRES2-hKO1 lentiviral vector at an MOI of 0.5 to 1 in the same way again to prepare therapeutic stem cells (TSCs), that is, NS/PCs expressing HSVtk.
# [2] = test system: Tet-induction NS/PCs expressing HSVtk; experiment: Cell death of Tet-induction NS/PCs expressing HSVtk on adding Dox and GCV to the medium; details: 1 μg/ml doxycycline (Dox) and 1 μg/ml GCV added to the medium
# Source text: Tet-induced iPS cells expressing HSVtk were differentiation-induced into NS/PCs to obtain secondary and tertiary Tet-induced NS/PCs expressing HSVtk.
compound,measurement,setting,value
"Nc1nc(O)c2ncn(COC(CO)CO)c2n1 [GCV, ganciclovir]",cell death of Tet-induction iPS cells expressing HSVtk,[1],cell death of Tet-induction iPS cells expressing HSVtk was induced
same,cell death of NS/PCs expressing HSVtk,NS/PCs expressing HSVtk,cell death of the NS/PCs expressing HSVtk was induced
same,cell death of Tet-induction NS/PCs expressing HSVtk,[2],cell death of these Tet-induction NS/PCs expressing HSVtk was also induced
